From US20160051491A1, “NOVEL USE OF PINOSYLVIN FOR ANGIOGENESIS PROMOTION” (INDUSTRY-ACADEMIC COOPERATION FOUNDATION, DANKOOK UNIVERSITY, priority 2013, published 2016)

Legend:
JNK = assay: Western blotting of p-JNK in BAECs; assay type: cell-based, Bovine; details: 1 pM pinosylvin, 0 to 60 minutes, serum-depleted BAECs, FIG. 2
Protocol: (§1) The BAECs were grown to confluency in 20% FBS-DMEM, washed with ice-cold PBS, scraped in 250 μL RIPA buffer (50 mM Tris, pH 7.5, 150 mM NaCl, 1% NP-40, 0.5% sodium deoxycholate, and 0.1% SDS), and solubilized for 15 minutes to prepare the cell lysates. All the solubilization procedures were performed at 4° C., and the protein content of the soluble cell lysates was measured using a Bio-Rad DC assay kit (Bio-Rad). The solution lysates (10 μg each) were resolved by SDS-PAGE. The resolved protein bands were then transferred to a polyvinylidene difluoride (PVDF) membrane (Bio-Rad) and probed with p-ERK (cell signaling), p-p38 MAP kinase (cell signaling), p-JNK (cell signaling), p-eNOS (cell signaling), p-Akt (cell signaling) and caspase-3 (cell signaling) for 1 hour to overnight. The membranes were then incubated with a secondary antibody at room temperature for 1 hour, where goat anti-rabbit IgG conjugated to alkaline phosphatase was used as a secondary antibody. Finally, the results were confirmed using a chemiluminescent detection method.

eNOS = assay: Western blotting of p-eNOS in BAECs; assay type: cell-based, Bovine; details: 1 pM pinosylvin, 0 to 60 minutes, serum-depleted BAECs, FIG. 2
Protocol: as §1

p38 MAP kinase = assay: Western blotting of p-p38 MAP kinase in BAECs; assay type: cell-based, Bovine; details: 1 pM pinosylvin, 0 to 60 minutes, serum-depleted BAECs, FIG. 2
Protocol: as §1

caspase-3 = assay: Caspase-3 cleavage (Western blot) and caspase-3 colorimetric activity (Ac-DEVD-pNA) in BAEC lysates; assay type: cell-based, Bovine; details: FIGS. 1C and 1D
Protocol: Caspase-3 activity was measured with Ac-DEVD-pNA as a substrate using the caspase-3 Colorimetric Activity Assay Kit (Chemicon). Specifically, BAECs were grown to confluency in 20% FBS-DMEM and then starved for more than 8 hours. The cells were treated with various apoptotic agents (100 μM ETO) and then lysed. The cell lysates were reacted in a reaction buffer containing 236 μM Ac-DEVD-pNA with or without specific inhibitors (0.1 μM Ac-DEVD-CHO) in 96-well plates at 37° C. for 2 hours. Then, the caspase-3 activity was determined by measuring the absorbance of the reactions at 405 nm using a microplate reader (Bio-Rad, Model 550).
as §1

ERK = assay: Western blotting of p-ERK in BAECs; assay type: cell-based, Bovine; details: 1 pM pinosylvin, 0 to 60 minutes, serum-depleted BAECs, FIG. 2
Protocol: as §1

[1] = tested on: Bovine aortic endothelial cells (BAECs); assay: Serum starvation-induced apoptosis of endothelial cells (apoptotic cell count under microscope); assay type: cell-based
Protocol: (§2) Bovine aortic endothelial cells (BAECs) were obtained from the descending thoracic aortas, and maintained in a growth medium (DMEM (1 g/L glucose, Life technologies, Inc.) containing 20% fetal bovine […] (FBS, Atlanta Biologicals) without antibiotics) at 37° C. in 5% CO2. The number of cells used for used in this study was between 3 generations and 10 generations, and they were allowed to grow in untreated culture dishes. Before drug treatment, BAECs were grown to confluency in a 5% CO2 incubator with growth media containing 50 μg/mL penicillin and 50 μg/mL streptomycin. The cells were then starved for between 4 hours and 24 hours in starvation media (DMEM supplemented with 0.5% FBS and 50 μg/mL penicillin and 50 μg/mL streptomycin).
[…] Since pinosylvin is not commercially available, it was synthesized as described (Park et al., Cell Physiol Biochem. 2011; 27(3-4): 353-62.). […]
Confluent BAECs were starved for more than 4 hours, treated with pinosylvin, and then incubated for an additional period of time (0 hours, 12 hours, 24 hours, and 48 hours) for the evaluation of time-dependent changes in apoptosis. […] For quantification, the present inventors counted the number of apoptotic cells in the same visual field.

[2] = tested on: Bovine aortic endothelial cells (BAECs); assay: Etoposide-induced apoptosis, Hoechst 33258 staining of fragmented nuclei; assay type: cell-based; details: FIG. 1B
Protocol: as §2
For the apoptotic analysis, the confluent cells were incubated in 0.5% FBS-DMEM containing 0 μM or 100 μM etoposide (ETO, Sigma) or varying amounts of pinosylvin for 36 hours. […]
For Hoechst staining, the confluent cells were incubated with 0.5% FBS-DMEM containing 100 μM ETO without any compound (vehicle control) for 36 hours. […] After incubation, the stained cells were thoroughly washed with PBS and the nuclei were observed under a fluorescence microscope (Zeiss Autoplan 2) to confirm the occurrence of apoptosis.

[3] = tested on: Bovine aortic endothelial cells (BAECs); assay: Endothelial tube formation on ECM gel; assay type: cell-based; details: FIG. 4B
Protocol: ECM gel (Cell Biolabs Inc.) was thawed overnight at 4° C. Then, the thawed gel 50 μL was added into each well of the 96-well plates. To form a gel, the 96-well plates were incubated at 37° C. for 1 hour. Then, the BAEC suspension (1.5×10^4 cells/100 μL) containing no pinosylvin, 1 pM pinosylvin, or 1 pM pinosylvin with 2.5 mM L-NAME, in DMEM, respectively, was added into a gel and placed in a 5% CO2 incubator at 37° C. for 12 hours to 18 hours. Then, the endothelial cells were observed under a microscope to confirm tube formation.

[4] = tested on: Bovine aortic endothelial cells (BAECs); assay: Endothelial cell proliferation (microscopy, WST-1 assay); assay type: cell-based
Protocol: as §2
Cell proliferation was measured using a cell viability assay kit (Daeil Lab Service Co., LTD., Seoul, Korea). Specifically, confluent BAECs were serum-starved for 16 hours, and then various concentrations of pinosylvin or 20% serum were added and incubated. The cells were washed more than twice with PBS and reacted with the WST-1 reagent. The live cells were then measured at 450 nm using an ELISA microplate reader (Bio-Rad, Model 550).

[5] = tested on: Bovine aortic endothelial cells (BAECs); assay: Endothelial cell migration (wound scrape); assay type: cell-based; details: 1 pM pinosylvin, FIG. 4A
Protocol: Confluent BAECs were treated twice with 2 mM thymidine for 18 hours and wounded with a pipette tip. Then, the cells were incubated in the starvation media for 20 hours with increasing amounts of pinosylvin: 1) no pinosylvin, 2) 1 pM pinosylvin, or 3) 1 pM pinosylvin with 2.5 mM L-NAME, in DMEM, respectively. The migrated cells were observed under a microscope and quantified by counting the number of the migrated cells in the wound area.

Akt = assay: Western blotting of p-Akt in BAECs; assay type: cell-based, Bovine; details: 1 pM pinosylvin, 0 to 60 minutes, serum-depleted BAECs, FIG. 2
Protocol: as §1

SMILES | JNK phosphorylation (JNK) | eNOS phosphorylation (eNOS) | p38 phosphorylation (p38 MAP kinase) | ETO-induced caspase-3 activation (caspase-3; 1 pM pinosylvin, 100 μM ETO) | starvation-induced caspase-3 activation (caspase-3; 1 pM pinosylvin, serum-depleted cells) | ERK phosphorylation (ERK) | starvation-induced apoptosis, apoptotic cells counted per visual field ([1]; 1 pM to 10 μM of pinosylvin, FIG. 1A bottom panel) | serum starvation-induced apoptosis (round and shrunken cells) ([1]; BAECs serum-starved for 72 hours, low dose of pinosylvin, FIG. 1A top panel) | fragmentation of the nuclei (Hoechst 33258 staining), ETO-induced ([2]; 1 pM pinosylvin together with 100 μM ETO) | effect of tube formation by pinosylvin when treated concurrently with L-NAME ([3]; 1 pM pinosylvin with 2.5 mM L-NAME (eNOS inhibitor)) | tube formation compared to the control group ([3]; 1 pM pinosylvin) | number of cells compared with untreated cells (microscope) ([4]; 1 pM pinosylvin, thirty percent confluent BAECs, FIG. 3A) | cell proliferation, WST-1 assay ([4]; DMEM with none or 20% serum, 24 hours, FIG. 3B) | cell migration [5] | Akt phosphorylation (Akt) | caspase-3 activation (caspase-3; 100 μM ETO) | fragmentation of the nuclei (Hoechst 33258 staining) ([2]; cells treated with 100 μM ETO alone)
Oc1cc(O)cc(/C=C/c2ccccc2)c1 [pinosylvin, 5-[(E)-2-phenylethenyl]benzene-1,3-diol] | remained largely unchanged | substantially promoted | remained largely unchanged | inhibited | inhibited | remained largely unchanged | inhibited | prevent serum starvation-induced apoptosis | markedly reduced level | reduced | significantly increase tube formation | increased | promote cell proliferation regardless of the presence of serum | significantly promote cell migration | substantially promoted | – | –
COc1cc([C@@H]2c3cc4c(cc3[C@@H](O[C@@H]3O[C@@H]5CO[C@@H](C)O[C@H]5[C@H](O)[C@H]3O)[C@H]3COC(=O)[C@H]23)OCO4)cc(OC)c1O [ETO, etoposide, reference compound] | – | – | – | – | – | – | – | – | – | – | – | – | – | – | – | activate caspase-3 | detected
